Experimental data as given in patent US20020086278A1, “CHROMOGENIC MEDIA CONTAINING BLOOD OR HEMIN” (priority 1999, published 2002).
“Also recorded” adds a separate entry of the source. Like-named read-outs stand apart in the source and are kept apart here.

Assays:
Escherichia coli 25922 = assay: Example 1: growth and colony color on plates surface-spread with chromogen; type: cell-based; conditions: E. coli 25922
Group B Strep. 12386 = assay: as above; type: cell-based; conditions: for Color: Group B Strep 12386
N. gonorrhoeae 35201 = assay: as above; type: cell-based; conditions: Summary of Table I; N. gonorrhoeae 35201
[1] = test system: Gardnerella vaginalis 14019; assay: as above; type: cell-based; conditions: Summary of Table I; G. vaginalis 14014
E. coli 25922 = assay: Example 2: effect of incubation conditions on colony color formation; type: cell-based, Escherichia coli; conditions: 0.004 g/plate
[2] = test system: Aeromonas hydrophilia (aehy); assay: Example 3: colony color on chromogenic TSA II with 5% sheep blood (chromogen in medium); type: cell-based; conditions: for Colony Color: CO2, 18 h
[3] = test system: Branhamella catarrhalis (brca); assay: as above; type: cell-based; conditions: for Colony Color: CO2, 18 h
Candida albicans (caal) = assay: as above; type: cell-based
[4] = test system: Entercoccus faecalis (enfa); assay: as above; type: cell-based; conditions: for Colony Color: CO2, 18 h
[5] = test system: E. coli (non-O157) (esco); type: cell-based; conditions: chromogenic TSA II with 5% Sheep Blood, 0.1 g/l; 3 strains tested
[6] = test system: Klebsiella pneumoniae (klpn); assay: Example 3: colony color on chromogenic TSA II with 5% sheep blood (chromogen in medium); type: cell-based; conditions: for Colony Color: CO2, 18 h
[7] = test system: Pseudomonas aeruginosa (psae); assay: as above; type: cell-based; conditions: for Colony Color: CO2, 18 h
Salmonella spp. (sasp) = type: cell-based; conditions: for Colony Color: CO2, 18 h
[8] = test system: Serratia marcescens (sema); assay: Example 3: colony color on chromogenic TSA II with 5% sheep blood (chromogen in medium); type: cell-based
[9] = test system: Streptococcus agalactiae (stag); assay: as above; type: cell-based; conditions: chromogenic TSA II with 5% Sheep Blood, 0.1 g/l; 3 strains tested
[10] = test system: Staphylococcus aureus (stau); assay: as above; type: cell-based
[11] = test system: Staphylococcus Coag Neg (step); assay: as above; type: cell-based; conditions: for Colony Color on Various Chromogenic TSA II with 5% Sheep Blood: CO2, 18 h
S. milleri (stmi) = assay: as above; type: cell-based
S. pneumoniae (stpn) = assay: as above; type: cell-based; conditions: for Colony Color on Various Chromogenic TSA II with 5% Sheep Blood: CO2, 18 h
S pyogenes (stpy) = assay: as above; type: cell-based; conditions: CO2, 18 h
milu 9341 = assay: as above; type: cell-based; conditions: CO2, 18 h
[12] = chromogenic TSA II with 5% Sheep Blood, 0.1 g/l, 3 strains tested
[13] = chromogenic TSA II with 5% Sheep Blood, 0.1 g/l, 2 strains tested
[14] = chromogenic TSA II with 5% Sheep Blood, 0.1 g/l, 6 strains tested
[15] = chromogenic TSA II with 5% Sheep Blood, 0.1 g/l, 5 strains tested

SMILES: O=C(O)[C@H]1O[C@@H](Oc2c[nH]c3ccc(Br)c(Cl)c23)[C@H](O)[C@@H](O)[C@@H]1O [X-Glucuro, X-Glucuronide]
- Color (Escherichia coli 25922; Choc II): blue
- Substrates Producing Color (Escherichia coli 25922; Summary of Table I): X-Glucuro
- Color (Escherichia coli 25922; TSA II 5SB): blue
- Color (Escherichia coli 25922; TSA Plain): blue
- Color (Group B Strep. 12386; Choc II): blue
- Substrates Producing Color (Group B Strep. 12386; Summary of Table I, Group B Strep. 12386): Glucuro
- Color (Group B Strep. 12386; TSA II 5SB): blue with beta hemolysis; also recorded: blue (a)
- Color (Group B Strep. 12386; TSA Plain): blue
- Substrates Producing Growth Inhibition (N. gonorrhoeae 35201): X-Glucuro
- Substrates Producing Growth Inhibition [1]: Glucuro
- Colony Color (E. coli 25922; Chocolate II Agar, 24 h, air): blue (d)
- Colony Color (E. coli 25922; TSA II 5% Sheep Blood, 24 h, air): blue (d)
- Colony Color (E. coli 25922; TSA II 5% Sheep Blood, 5 d, ANA): blue (m)
- Colony Color (E. coli 25922; TSA II 5% Sheep Blood, 5 d, MA): blue (m)
- Colony Color ([2]; aehy 7965): 0
- Colony Color ([2]; aehy 7966): 0
- Colony Color ([2]; aehy 49847): 0
- Colony Color (Summary) [2, 12]: 0
- Colony Color ([3]; brca 25238): 0
- Colony Color ([3]; brca 25240): 0
- Colony Color (Summary) [3, 13]: 0
- Colony Color (Candida albicans (caal); caal 10231, CO2, 18 h): 0
- Colony Color (Summary) (Candida albicans (caal); [13]): 0
- Colony Color (Summary) [4, 14]: 0
- Colony Color ([4]; enfa 597): 0
- Colony Color ([4]; enfa 10741): 0
- Colony Color ([4]; enfa 12953): 0
- Colony Color ([4]; enfa 14506): 0
- Colony Color ([4]; enfa 29212): 0
- Colony Color (Summary) [5]: +
- Colony Color (Summary) [6, 12]: 0
- Colony Color ([6]; klpn 13883): 0
- Colony Color ([6]; klpn 33495): 0
- Colony Color ([6]; klpn 33606): 0
- Colony Color (Summary) [7, 12]: 0
- Colony Color ([7]; psae 9027): 0
- Colony Color ([7]; psae 15442): 0
- Colony Color ([7]; psae 33607): 0
- Colony Color (Summary) (Salmonella spp. (sasp); [13]): 0
- Colony Color (Salmonella spp. (sasp); saty 19430): 0
- Colony Color (Salmonella spp. (sasp); satym 14028): 0
- Colony Color (Summary) ([8]; chromogenic TSA II with 5% Sheep Blood, 0.1 g/l, 1 strain tested): 0
- Colony Color ([8]; sema 13880, CO2, 18 h): 0
- Colony Color (Summary) [9]: 0
- Colony Color (Summary) [10, 15]: 0
- Colony Color ([10]; stau 25923, CO2, 18 h): 0
- Colony Color on Various Chromogenic TSA II with 5% Sheep Blood ([10]; stau t006, CO2, 18 h): 0
- Colony Color on Various Chromogenic TSA II with 5% Sheep Blood ([10]; stau t007, CO2, 18 h): 0
- Colony Color on Various Chromogenic TSA II with 5% Sheep Blood ([10]; stau t008, CO2, 18 h): 0
- Colony Color on Various Chromogenic TSA II with 5% Sheep Blood ([10]; stau t009, CO2, 18 h): 0
- Colony Color (Summary) [11, 15]: 0
- Colony Color on Various Chromogenic TSA II with 5% Sheep Blood ([11]; step 12228): 0
- Colony Color on Various Chromogenic TSA II with 5% Sheep Blood ([11]; step cdc1): 0
- Colony Color on Various Chromogenic TSA II with 5% Sheep Blood ([11]; step cdc4): 0
- Colony Color on Various Chromogenic TSA II with 5% Sheep Blood ([11]; stha cdc2): 0
- Colony Color on Various Chromogenic TSA II with 5% Sheep Blood ([11]; stsa cdc3): 0
- Colony Color (Summary) (S. milleri (stmi); [13]): 0
- Colony Color on Various Chromogenic TSA II with 5% Sheep Blood (S. milleri (stmi); stmi 6242, CO2, 18 h): 0
- Colony Color (Summary) (S. pneumoniae (stpn); [14]): 0
- Colony Color on Various Chromogenic TSA II with 5% Sheep Blood (S. pneumoniae (stpn); stpn t259): 0
- Colony Color on Various Chromogenic TSA II with 5% Sheep Blood (S. pneumoniae (stpn); stpn t260): 0
- Colony Color on Various Chromogenic TSA II with 5% Sheep Blood (S. pneumoniae (stpn); stpn t331): 0
- Colony Color on Various Chromogenic TSA II with 5% Sheep Blood (S. pneumoniae (stpn); stpn t628): 0
- Colony Color on Various Chromogenic TSA II with 5% Sheep Blood (S pyogenes (stpy); stpy 51339): db beta
- Colony Color on Various Chromogenic TSA II with 5% Sheep Blood (S pyogenes (stpy); stpy t027): 0
- Colony Color on Various Chromogenic TSA II with 5% Sheep Blood (S pyogenes (stpy); stpy t028): 0
- Colony Color on Various Chromogenic TSA II with 5% Sheep Blood (S pyogenes (stpy); stpy t029): 0
- Colony Color on Various Chromogenic TSA II with 5% Sheep Blood (S pyogenes (stpy); stpy t030): 0
- Colony Color (milu 9341): ly
